# According to article PMC3539403, “Molecular Characterization of Lipopolysaccharide Binding to Human α-1-Acid Glycoprotein” (Journal of Lipids, 2012):
# Entries after “also recorded” stand apart in the source; their conditions may differ. Like-named read-outs stand apart in the source and are kept apart here.
# B1: bovine AGP: bovine α-1-acid glycoprotein (protein, UniProt Q3SZR3 19-202, looked up)
# Alpha-1-acid glycoprotein: QSPECANLMTVAPITNATMDLLSGKWFYIGSAFRNPEYNKSARAIQAAFFYLEPRHAEDKLITREYQTIEDKCVYNCSFIKIYRQNGTLSKVESDREHFVDLLLSKHFRTFMLAASWNGTKNVGVSFYADKPEVTQEQKKEFLDVIKCIGIQESEIIYTDEKKDACGPLEKQHEEERKKETEAS
# B2: LBP: lipopolysaccharide-binding protein, LPS-specific plasma binding protein (protein, UniProt P18428 26-481, looked up)
# Lipopolysaccharide-binding …: ANPGLVARITDKGLQYAAQEGLLALQSELLRITLPDFTGDLRIPHVGRGRYEFHSLNIHSCELLHSALRPVPGQGLSLSISDSSIRVQGRWKVRKSFFKLQGSFDVSVKGISISVNLLLGSESSGRPTVTASSCSSDIADVEVDMSGDLGWLLNLFHNQIESKFQKVLESRICEMIQKSVSSDLQPYLQTLPVTTEIDSFADIDYSLVEAPRATAQMLEVMFKGEIFHRNHRSPVTLLAAVMSLPEEHNKMVYFAISDYVFNTASLVYHEEGYLNFSITDDMIPPDSNIRLTTKSFRPFVPRLARLYPNMNLELQGSVPSAPLLNFSPGNLSVDPYMEIDAFVLLPSSSKEPVFRLSVATNVSATLTFNTSKITGFLKPGKVKVELKESKVGLFNAELLEALLNYYILNTFYPKFNDKLAEGFPLPLLKRVQLYDLGLQIHKDFLFLGANVQYMRV
# B3: BPI: bactericidal/permeability-increasing protein (protein, UniProt P17213 32-487, looked up)
# Bactericidal …: VNPGVVVRISQKGLDYASQQGTAALQKELKRIKIPDYSDSFKIKHLGKGHYSFYSMDIREFQLPSSQISMVPNVGLKFSISNANIKISGKWKAQKRFLKMSGNFDLSIEGMSISADLKLGSNPTSGKPTITCSSCSSHINSVHVHISKSKVGWLIQLFHKKIESALRNKMNSQVCEKVTNSVSSELQPYFQTLPVMTKIDSVAGINYGLVAPPATTAETLDVQMKGEFYSENHHNPPPFAPPVMEFPAAHDRMVYLGLSDYFFNTAGLVYQEAGVLKMTLRDDMIPKESKFRLTTKFFGTFLPEVAKKFPNMKIQIHVSASTPPHLSVQPTGLTFYPAVDVQAFAVLPNSSLASLFLIGMHTTGSMEVSAESNRLVGELKLDRLLLELKHSNIGPFPVELLQDIMNYIVPILVLPRVNEKLQKGFPLPTPARVQLYNVVLQPHQNFLLFGADVVYK
# Legend:
# human AGP [1] = assay: SPR assay of AGP binding to lipid A/Kdo2-lipid A in DMPC hybrid SUV bilayer (L1 chip); conditions: 10% (mol/mol) lipid in DMPC bilayer; Kdo2-lipid A response at AGP concentrations higher than 7 μM
# Protocol: In the case of lipid A and Kdo2-lipid A binding, a L1 sensor chip was used (GE Health Care, Melbourne Australia). Small unilamellar vesicles (SUVs) were prepared in PBS by sonication and extrusion. Lipids (DMPC, lipid A, and Kdo2-lipid A) were dissolved in ethanol-free chloroform in 25 mL round-bottom flasks. 10% (mol/mol) of lipid A or Kdo2-lipid A was added into DMPC solution to make 10% lipid A/Kdo2-lipid A-DMPC mixtures, which were then deposited as a thin film by removal of the solvent (chloroform) under reduced pressure on a rotary evaporator and dried under high vacuum for at least 2 hours. PBS was then added into each flask to give a 1 mM suspension, which was sonicated 5 min for 5 times. […] The SUVs were then injected into the flow cells of the L1 sensor chip for 2000 sec at a low flow rate of 2 μL/min to form a bilayer membrane model on the chip surface. Then, a series of AGP solutions was injected across the flow cells at a flow rate of 30 μL/min, having an injection phase of 180 s and a dissociation phase of 300 s. A regeneration step was added before and after every cycle using 40 mM octyl-glucoside, which cleans the chip surface for a new cycle. Pure DMPC bilayer was applied as a reference and all data used in analysis were reference-subtracted.
# human AGP [2] = assay: Fluorometric assay of FITC-E. coli O111:B4 LPS binding to AGP; conditions: chlorpromazine 20 μM final concentration; FITC-LPS 5 μM, AGP 25 μM
# Protocol: […] Fluorescence was measured using a Cary Eclipse Fluorescence spectrophotometer (Varian, Mulgrave, VIC, Australia) set at an excitation wavelength specific for the FITC fluorophore (Exλ 494 nm). Slit widths were set to 5 nm for both the excitation and emission monochromators. The emission spectrum was collected in the 500→650 nm range.
# K. pneumoniae = tested on: K. pneumoniae; set-up: method as in PMID 10809735; conditions: intraperitoneal, 10 mg, 2 h prior to lethal challenge of K. pneumoniae; cited from earlier work
# HEK293 cells = assay: Cytotoxicity of LPS to HEK293 cells (Alamar Blue cell viability), with or without AGP; format: cell-based; conditions: LPS 100 μg/mL, AGP 0-1 mg/mL
# Protocol: HEK293 cell line was purchased from American Type Culture Collection (ATCC). The cells were cultured in DMEM (Invitrogen, Australia) containing 10% fetal bovine serum at 37°C, 5% CO2. Serum-free media were used in cytotoxicity assays. Cytotoxicity of LPS to HEK293 cells was determined using Alamar Blue cell viability reagent (Invitrogen, Australia). In brief, HEK293 cells were seeded as 2 × 10^4 cells per well in a clear 96-well plate and incubated for 24 hr at 37°C, 5% CO2. Then the media were replaced with serum-free media, which contained AGP and LPS (100 μg/mL). After a 24 hr incubation, 10 μL of Alamar Blue reagent were added per well and incubated at 37°C for 1 hr. Then the fluorescence intensity was read using Polar star Omega with excitation/emission wavelengths of 560/590.
# [3] = LPS binding affinity of plasma binding proteins; conditions: AGP, this study's SPR data
# [4] = tested on: meningococcal endotoxemia mouse model; set-up: method as in PMID 9179623; conditions: intraperitoneal, 8 mg, 2 h prior to LPS challenge; cited from earlier work
# [5] = set-up: method as in PMID 12887306, PMID 11739189; conditions: cited from earlier work
molecule,measurement,setting,value
CCCCCCCCCCCCCC(=O)O[C@H](CCCCCCCCCCC)CC(=O)O[C@@H]1[C@@H](NC(=O)C[C@@H](CCCCCCCCCCC)OC(=O)CCCCCCCCCCC)[C@H](OC[C@H]2O[C@H](OP(=O)(O)O)[C@H](NC(=O)C[C@H](O)CCCCCCCCCCC)[C@@H](OC(=O)C[C@H](O)CCCCCCCCCCC)[C@@H]2O)O[C@H](CO[C@]2(C(=O)O)C[C@@H](O[C@]3(C(=O)O)C[C@@H](O)[C@@H](O)[C@@H]([C@H](O)CO)O3)[C@@H](O)[C@@H]([C@H](O)CO)O2)[C@H]1OP(=O)(O)O [Kdo2-lipid A],specific AGP binding to lipid in hybrid SUVs,human AGP [1],dose-dependent response; also recorded: very weak
CN(C)CCCN1c2ccccc2Sc2ccc(Cl)cc21 [chlorpromazine],change in fluorescence emission of the FITC-LPS:AGP complex,human AGP [2],decrease in fluorescence emission
"AGP: human α-1-acid glycoprotein from plasma, F1:S:A variants 40:30:30",survival of mice,K. pneumoniae,increased the survival of mice
same,effect of AGP on the cytotoxic effect of LPS,HEK293 cells,ameliorated in a concentration-dependent manner
same,LPS binding affinity,[3],high micromolar
diphosphoryl lipid A,specific AGP binding to lipid in hybrid SUVs,human AGP [1],no specific AGP binding detected
B1,protection against sepsis,[4],protect against sepsis
B2,LPS binding affinity,[5],nanomolar
B3,LPS binding affinity,[5],nanomolar
